In patent US7781596B1, “Substituted 2-phenylbenzimidazoles, the production thereof and their use” (Abbott Laboratories, priority 1998, dated 2010):
Structures can show the parent of a compound that is named as a salt. Where two headings read alike, the source gives them in different places. Blank lines part the entries; values can stand above or below the compound they belong to.

What was measured:
[1] = system: circulatory failure; settings: S. Cuzzocrea et al., Br. J. Pharmacol. 1997, 121, 1065-1074; cited from earlier work
[2] = pH 5
Procedure: (§1) If the measured substance is not in the form of a water-soluble salt, it was dissolved in the minimum amount of dimethyl sulfoxide and then diluted with water (final dimethyl sulfoxide concentration≦1%), after which the pH was again adjusted.

[3] = Determination of the solubility in water; settings: solution adjusted to pH 5 to 6 with sodium acetate, DMSO <=1% if not a water-soluble salt
Procedure: as §1

Compound: NC(=O)c1cccc(N)c1 [3-aminobenzamide]
effects in a model of circulatory failure [1]: protective effects

solubility in water [2]: > 0.5%
Compound: CCN(CC)CCOc1ccc(-c2nc3c(C(N)=O)cccc3[nH]2)cc1 [Example 2, 2-(4-(2-(N,N-Diethylamino)eth-1-yloxy)phenyl)benzimidazole-4-carboxamide×2 hydrochloride]

solubility in water [3]: < 0.01%
Compound: COc1ccc(-c2nc3cccc(C(N)=O)c3[nH]2)cc1 [NU 1076]
